Patent US9944678B2, “Immunomodulators” (BRISTOL-MYERS SQUIBB COMPANY, priority 2014, dated 2018)
Starred links: 1 amine or outer side, 2 acyl side, 3 side chain; linkers in the order of their positions; H or OH if unused. Positions of bridges follow the written chain, without caps; N, C: chain ends. Non-standard residues stand in square brackets, D forms with d. Residues, ends and D or L forms follow the SMILES beside them. ξ: configuration not given here. X1 = C=C[C@H]1C[C@@]1(N[*:1])C(=O)[*:2]; X4 = C[C@H]1C[C@@]1(N[*:1])C(=O)[*:2]; Bta = N[C@@H](Cc1csc2ccccc12)C(=O)O; Hyp = O=C(O)[C@@H]1C[C@@H](O)CN1; Aic = NC1(C(=O)O)Cc2ccccc2C1; NMeNle = CCCC[C@H](NC)C(=O)O; NMeA = CN[C@@H](C)C(=O)O; Ac5c = NC1(C(=O)O)CCCC1; Dab = NCC[C@H](N)C(=O)O; Dap = NC[C@H](N)C(=O)O; Ac3c = NC1(C(=O)O)CC1; Aib = CC(C)(N)C(=O)O; ξC = NC(CS)C(=O)O

target: T1, PD-1-Ig binding to PD-L1-TVMV-His (PD-L1-His) (Homo sapiens, UniProt Q9NZQ7); experiment: PD-1/PD-L1 Homogenous Time-Resolved Fluorescence (HTRF) binding assay; settings: PD-1-Ig/PD-L1-His binding; numeric values
T1 construct: hPDL1(19-239)-TVMV-His; TVMV protease cleavage site (C); made in house; host or cells: HEK293T cells
Text: The ability of the macrocyclic peptides of the present disclosure to bind to PD-L1 was investigated using a PD-1/PD-L1 Homogenous Time-Resolved Fluorescence (HTRF) binding assay.
Homogenous Time-Resolved Fluorescence (HTRF) Assays of Binding of Soluble PD-1 to Soluble PD-L1. Soluble PD-1 and soluble PD-L1 refers to proteins with carboxyl-end truncations that remove the transmembrane-spanning regions and are fused to heterologous sequences, specifically the Fc portion of the human immunoglobuling G sequence (Ig) or the hexahistidine epitope tag (His). All binding studies were performed in an HTRF assay buffer consisting of dPBS supplemented with 0.1% (w/v) bovine serum albumin and 0.05% (v/v) Tween-20. For the PD-1-Ig/PD-L1-His binding assay, inhibitors were pre-incubated with PD-L1-His (10 nM final) for 15 m in 4 μl of assay buffer, followed by addition of PD-1-Ig (20 nM final) in 1 μl of assay buffer and further incubation for 15 m. PD-L1 fusion proteins from either human, cynomologous macaques, mouse, or other species were used. HTRF detection was achieved using europium crypate-labeled anti-Ig monoclonal antibody (1 nM final) and allophycocyanin (APC) labeled anti-His monoclonal antibody (20 nM final). Antibodies were diluted in HTRF detection buffer and 5 μl was dispensed on top of binding reaction. The reaction was allowed to equilibrate for 30 minutes and signal (665 nm/620 nm ratio) was obtained using an EnVision fluorometer. Additional binding assays were established between PD-1-Ig/PD-L2-His (20 and 5 nM, respectively), CD80-His/PD-L1-Ig (100 and 10 nM, respectively) and CD80-His/CTLA4-Ig (10 and 5 nM, respectively). Binding/competition studies between biotinylated Compound No. 71 and human PD-L1-His were performed as follows. Macrocyclic peptide inhibitors were pre-incubated with PD-L1-His (10 nM final) for 60 minutes in 4 μl of assay buffer followed by addition of biotinylated Compound No. 71 (0.5 nM final) in 1 μl of assay buffer. Binding was allowed to equilibrate for 30 minutes followed by addition of europium crypated labeled Streptavidin (2.5 pM final) and APC-labeled anti-His (20 nM final) in 5 μl of HTRF buffer. The reaction was allowed to equilibrate for 30 m and signal (665 nm/620 nm ratio) was obtained using an EnVision fluorometer.
Recombinant Proteins. Carboxyl-truncated human PD-1 (amino acids 25-167) with a C-terminal human Ig epitope tag [hPD-1 (25-167)-3S-IG] and human PD-L1 (amino acids 18-239) with a C-terminal His epitope tag [hPD-L1(19-239)-tobacco vein mottling virus protease cleavage site (TVMV)-His] were expressed in HEK293T cells and purified sequentially by recombinant Protein A affinity chromatography and size exclusion chromatography. Human PD-L2-His (Sino Biologicals), CD80-His (Sino Biologicals), CTLA4-Ig (RnD Systems) were all obtained through commercial sources.
Ranges are as follows: A=0.10-10 μM; B=0.01-0.099 μM; C=0.004-0.0099 μM.

T1 sequence (Q9NZQ7 with tags, fused parts or gaps): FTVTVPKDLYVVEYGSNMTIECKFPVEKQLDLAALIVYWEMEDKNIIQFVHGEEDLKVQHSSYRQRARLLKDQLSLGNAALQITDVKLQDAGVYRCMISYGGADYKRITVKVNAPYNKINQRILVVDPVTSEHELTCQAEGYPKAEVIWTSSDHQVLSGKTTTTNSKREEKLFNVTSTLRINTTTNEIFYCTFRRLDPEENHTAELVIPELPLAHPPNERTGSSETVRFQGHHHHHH

IC50 [nM] | SMILES
20 | CCCC[C@H]1C(=O)N(C)[C@@H](CCCC)C(=O)N[C@@H](CC(C)C)C(=O)N[C@H](C(=O)NCC(N)=O)CSCC(=O)N[C@@H](Cc2ccc(O)cc2)C(=O)N(C)[C@@H](C)C(=O)N[C@@H](CC(N)=O)C(=O)N2CCC[C@H]2C(=O)NC(C)(C)C(=O)N[C@@H](CC(C)C)C(=O)N2C[C@H](O)C[C@H]2C(=O)N[C@@H](Cc2c[nH]c3ccccc23)C(=O)N[C@@H](CCN)C(=O)N[C@@H](Cc2c[nH]c3ccccc23)C(=O)N1C [Example 9011] ({CH2CO}-Y[NMeA]NP[Aib]L[Hyp]W[Dab]W[NMeNle][NMeNle]LCG-NH2; thioether N-14)
200 | C=C[C@H]1C[C@]12NC(=O)[C@H](CC(N)=O)NC(=O)[C@H](C)N(C)C(=O)[C@H](Cc1ccc(O)cc1)NC(=O)CSCC(C(=O)NCC(N)=O)NC(=O)[C@H](CCCNC(=N)N)NC(=O)[C@H](CCCC)N(C)C(=O)[C@H](CCCC)N(C)C(=O)[C@H](Cc1csc3ccccc13)NC(=O)[C@H](CO)NC(=O)[C@H](Cc1c[nH]c3ccccc13)NC(=O)[C@@H]1C[C@@H](O)CN1C(=O)[C@H](CC(C)C)NC(=O)[C@H](Cc1cnc[nH]1)NC2=O (stereo partly drawn) [Example 10002] ({CH2CO}-Y[NMeA]N[X1]HL[Hyp]WS[Bta][NMeNle][NMeNle]R[ξC]G-NH2; thioether N-14)

same assay, conditions: PD-1-Ig/PD-L1-His binding; values given as range classes

IC50 [nM] | SMILES
10 to 99 | CCCC[C@H]1C(=O)N(C)[C@@H](CCCC)C(=O)N[C@@H](CC(C)C)C(=O)N[C@H](C(=O)NCC(N)=O)CSCC(=O)N[C@@H](Cc2ccc(O)cc2)C(=O)N(C)[C@@H](C)C(=O)N[C@@H](CC(N)=O)C(=O)N2CCC[C@H]2C(=O)NC2(CC2)C(=O)N[C@@H](CC(C)C)C(=O)N2C[C@H](O)C[C@H]2C(=O)N[C@@H](Cc2c[nH]c3ccccc23)C(=O)N[C@@H](CCN)C(=O)N[C@@H](Cc2c[nH]c3ccccc23)C(=O)N1C [Example 9012] ({CH2CO}-Y[NMeA]NP[Ac3c]L[Hyp]W[Dab]W[NMeNle][NMeNle]LCG-NH2; thioether N-14)
100 to 10000 | CCCC[C@H]1C(=O)N(C)[C@@H](CCCC)C(=O)N[C@@H](CC(C)C)C(=O)N[C@H](C(=O)NCC(N)=O)CSCC(=O)N[C@@H](Cc2ccc(O)cc2)C(=O)N(C)[C@@H](C)C(=O)NC(C)(C)C(=O)N2CCC[C@H]2C(=O)N[C@@H](CN)C(=O)N[C@@H](CC(C)C)C(=O)N2C[C@H](O)C[C@H]2C(=O)N[C@@H](Cc2c[nH]c3ccccc23)C(=O)N[C@@H](CCN)C(=O)N[C@@H](Cc2c[nH]c3ccccc23)C(=O)N1C [Example 9013] ({CH2CO}-Y[NMeA][Aib]P[Dap]L[Hyp]W[Dab]W[NMeNle][NMeNle]LCG-NH2; thioether N-14)
100 to 10000 | CCCC[C@H]1C(=O)N(C)[C@@H](CCCC)C(=O)N[C@@H](CC(C)C)C(=O)N[C@H](C(=O)NCC(N)=O)CSCC(=O)N[C@@H](Cc2ccc(O)cc2)C(=O)N(C)[C@@H](C)C(=O)NC2(CC2)C(=O)N2CCC[C@H]2C(=O)N[C@@H](CN)C(=O)N[C@@H](CC(C)C)C(=O)N2C[C@H](O)C[C@H]2C(=O)N[C@@H](Cc2c[nH]c3ccccc23)C(=O)N[C@@H](CCN)C(=O)N[C@@H](Cc2c[nH]c3ccccc23)C(=O)N1C [Example 9014] ({CH2CO}-Y[NMeA][Ac3c]P[Dap]L[Hyp]W[Dab]W[NMeNle][NMeNle]LCG-NH2; thioether N-14)
10 to 99 | CCCC[C@H]1C(=O)N(C)[C@@H](CCCC)C(=O)NC2(CCCC2)C(=O)N[C@H](C(=O)NCC(N)=O)CSCC(=O)N[C@@H](Cc2ccc(O)cc2)C(=O)N(C)[C@@H](C)C(=O)N[C@@H](CC(N)=O)C(=O)N2CCC[C@H]2C(=O)N[C@@H](CN)C(=O)N[C@@H](CC(C)C)C(=O)N2C[C@H](O)C[C@H]2C(=O)N[C@@H](Cc2c[nH]c3ccccc23)C(=O)N[C@@H](CCN)C(=O)N[C@@H](Cc2c[nH]c3ccccc23)C(=O)N1C [Example 9015] ({CH2CO}-Y[NMeA]NP[Dap]L[Hyp]W[Dab]W[NMeNle][NMeNle][Ac5c]CG-NH2; thioether N-14)
10 to 99 | CCCC[C@H]1C(=O)N(C)[C@@H](CCCC)C(=O)NC2(Cc3ccccc3C2)C(=O)N[C@H](C(=O)NCC(N)=O)CSCC(=O)N[C@@H](Cc2ccc(O)cc2)C(=O)N(C)[C@@H](C)C(=O)N[C@@H](CC(N)=O)C(=O)N2CCC[C@H]2C(=O)N[C@@H](CN)C(=O)N[C@@H](CC(C)C)C(=O)N2C[C@H](O)C[C@H]2C(=O)N[C@@H](Cc2c[nH]c3ccccc23)C(=O)N[C@@H](CCN)C(=O)N[C@@H](Cc2c[nH]c3ccccc23)C(=O)N1C [Example 9016] ({CH2CO}-Y[NMeA]NP[Dap]L[Hyp]W[Dab]W[NMeNle][NMeNle][Aic]CG-NH2; thioether N-14)
10 to 99 | CCCC[C@H]1C(=O)N(C)[C@@H](CCCC)C(=O)N[C@@H](CC(C)C)C(=O)N[C@H](C(=O)NCC(N)=O)CSCC(=O)N[C@@H](Cc2ccc(O)cc2)C(=O)N(C)[C@@H](C)C(=O)N[C@@H](CC(N)=O)C(=O)N2CCC[C@H]2C(=O)NC2(CCCC2)C(=O)N[C@@H](CC(C)C)C(=O)N2C[C@H](O)C[C@H]2C(=O)N[C@@H](Cc2c[nH]c3ccccc23)C(=O)N[C@@H](CCN)C(=O)N[C@@H](Cc2c[nH]c3ccccc23)C(=O)N1C [Example 9017] ({CH2CO}-Y[NMeA]NP[Ac5c]L[Hyp]W[Dab]W[NMeNle][NMeNle]LCG-NH2; thioether N-14)
10 to 99 | CCCC[C@H]1C(=O)N(C)[C@@H](CCCC)C(=O)N[C@@H](CC(C)C)C(=O)N[C@H](C(=O)NCC(N)=O)CSCC(=O)N[C@@H](Cc2ccc(O)cc2)C(=O)N(C)[C@@H](C)C(=O)N[C@@H](CC(N)=O)C(=O)N2CCC[C@H]2C(=O)NC2(Cc3ccccc3C2)C(=O)N[C@@H](CC(C)C)C(=O)N2C[C@H](O)C[C@H]2C(=O)N[C@@H](Cc2c[nH]c3ccccc23)C(=O)N[C@@H](CCN)C(=O)N[C@@H](Cc2c[nH]c3ccccc23)C(=O)N1C [Example 9018] ({CH2CO}-Y[NMeA]NP[Aic]L[Hyp]W[Dab]W[NMeNle][NMeNle]LCG-NH2; thioether N-14)
100 to 10000 | C=C[C@H]1C[C@]12NC(=O)[C@H](CC(N)=O)NC(=O)[C@H](C)N(C)C(=O)[C@H](Cc1ccc(O)cc1)NC(=O)CSCC(C(=O)NCC(N)=O)NC(=O)[C@H](CCCNC(=N)N)NC(=O)[C@H](CCCC)N(C)C(=O)[C@H](CCCC)N(C)C(=O)[C@H](Cc1csc3ccccc13)NC(=O)[C@H](CO)NC(=O)[C@H](Cc1c[nH]c3ccccc13)NC(=O)[C@@H]1CCCN1C(=O)[C@H](CC(C)C)NC(=O)[C@H](Cc1cnc[nH]1)NC2=O (stereo partly drawn) [Example 10001] ({CH2CO}-Y[NMeA]N[X1]HLPWS[Bta][NMeNle][NMeNle]R[ξC]G-NH2; thioether N-14)
100 to 10000 | CCCC[C@H]1C(=O)N(C)[C@@H](CCCC)C(=O)N[C@@H](CCCNC(=N)N)C(=O)NC(C(=O)NCC(N)=O)CSCC(=O)N[C@@H](Cc2ccc(O)cc2)C(=O)N(C)[C@@H](C)C(=O)N[C@@H](CC(N)=O)C(=O)N[C@]2(C[C@@H]2C)C(=O)N[C@@H](Cc2cnc[nH]2)C(=O)N[C@@H](CC(C)C)C(=O)N2CCC[C@H]2C(=O)N[C@@H](Cc2c[nH]c3ccccc23)C(=O)N[C@@H](CO)C(=O)N[C@@H](Cc2csc3ccccc23)C(=O)N1C (stereo partly drawn) [Example 10003] ({CH2CO}-Y[NMeA]N[X4]HLPWS[Bta][NMeNle][NMeNle]R[ξC]G-NH2; thioether N-14)
10 to 99 | CCCC[C@H]1C(=O)N(C)[C@@H](CCCC)C(=O)N[C@@H](CCCNC(=N)N)C(=O)NC(C(=O)NCC(N)=O)CSCC(=O)N[C@@H](Cc2ccc(O)cc2)C(=O)N(C)[C@@H](C)C(=O)N[C@@H](CC(N)=O)C(=O)N[C@]2(C[C@@H]2C)C(=O)N[C@@H](Cc2cnc[nH]2)C(=O)N[C@@H](CC(C)C)C(=O)N2C[C@H](O)C[C@H]2C(=O)N[C@@H](Cc2c[nH]c3ccccc23)C(=O)N[C@@H](CO)C(=O)N[C@@H](Cc2csc3ccccc23)C(=O)N1C (stereo partly drawn) [Example 10004] ({CH2CO}-Y[NMeA]N[X4]HL[Hyp]WS[Bta][NMeNle][NMeNle]R[ξC]G-NH2; thioether N-14)
